Assay results published in US8563588B2, “Imidazolone derivatives, method for the preparation thereof and biological applications” (Universite de Rennes 1, priority 2007, dated 2013).
Like-named read-outs stand apart in the source and are kept apart here.

Target: Rat recombinant DYRK1A (Rattus norvegicus, UniProt Q63470)
Assay: Assaying of the kinase activity of DYRK1A (33P-ATP, myelin basic protein, P81 filter);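 note: GST fusion rat DYRK1A made in E. coli, scintillation counting of label bound to substrate, activity as percent of the inhibitor-free maximum after blank subtraction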
Assay type: biochemical
[1] = 15 μM ATP, 30° C., 30 min, read-out: IC50 DYRK1A

Method: Rat recombinant DYRK1A was expressed in E. coli as a GST fusion protein. It was purified by affinity chromatography on beads of immobilized glutathione (elution with free glutathione). […] After incubation at 30° C. for 30 min, 25-μL aliquots of supernatant were spotted onto Whatman P81 phosphocellulose filters and the filters were washed five times in a solution of phosphoric acid (10 ml/L water). The radioactivity incorporated into the substrate, retained on the moist filters, was then counted in the presence of ACS scintillation fluid (Amersham). The control values were subtracted and the activities were expressed as % of the maximum value, i.e. the value obtained in the absence of inhibitors. The IC50 values were calculated from dose-response curves and are given in μM.

| SMILES | IC50 [1] | IC50 (IC50 DYRK1A) |
| --- | --- | --- |
| CN1C(=O)/C(=C/c2ccc3c(c2)OCO3)N=C1Nc1ccc2c(c1)OCCO2 [MADE29] | 190 nM | – |
| CN1C(=O)/C(=C/c2ccc3c(c2)OCO3)N=C1Nc1ccc2c(c1)OCO2 [MADE30] | 370 nM | – |
| CN1C(=O)/C(=C/c2ccc3c(c2)OCO3)N=C1Nc1ccccc1 [MADE32] | 400 nM | – |
| CN1C(=O)/C(=C/c2ccc3c(c2)OCO3)N=C1Nc1ccc(O)c(C(=O)O)c1 [MADE33] | 940 nM | – |
| CN1C(=O)/C(=C/c2ccc3c(c2)OCO3)N=C1Nc1ccc(CC(=O)O)cc1 [MADE34] | 860 nM | – |
| CN1C(=O)/C(=C/c2ccc3c(c2)OCO3)N=C1Nc1cccc(CO)c1 [MADE37] | 230 nM | – |
| COc1ccc(NC2=N/C(=C\c3ccc4c(c3)OCO4)C(=O)N2C)cc1 [MADE39] | – | 270 nM |
| CN1C(=O)/C(=C/c2ccc3c(c2)OCO3)N=C1NCCO [MADE40] | 730 nM | – |
| CN1C(=O)/C(=C/c2ccc3c(c2)OCO3)N=C1Nc1ccccc1 [MADE42] | 430 nM | – |
| O=C1NC(Nc2ccccc2)=N/C1=C\c1ccc2c(c1)OCO2 [MADE44] | 71 nM | – |
| CN1C(=O)/C(=C/c2ccc3c(c2)OCO3)N=C1NCC(O)CO (stereo not shown) [MADE47] | 790 nM | – |
| O=C1NC(Nc2ccc(O)cc2)=N/C1=C\c1ccc2c(c1)OCO2 [MADE48] | 84 nM | – |
| CN1C(=O)/C(=C/c2ccc3c(c2)OCO3)N=C1c1ccccc1 [NL39, (5Z)-5-(1,3-Benzodioxol-5-ylmethylene)-3-methyl-2-phenyl-3,5-dihydro-4H-imidazol-4-one] | 3200 nM | – |
| CN1C(=O)/C(=C/c2ccc3c(c2)OCO3)N=C1c1ccc2c(c1)OCO2 [NL88A] | 220 nM | – |
| CN1C(=O)/C(=C/c2ccc3c(c2)OCO3)N=C1c1ccc(O)cc1 [NL96] | 430 nM | – |
| CN1C(=O)/C(=C/c2ccc3c(c2)OCO3)N=C1NCCCO [SA142] | 1300 nM | – |
| CCCCN1C(=O)/C(=C/c2ccc3c(c2)OCO3)N=C1NCCCO [SA164] | > 10000 nM | – |
| COCCSC1=N/C(=C\c2ccc3c(c2)OCO3)C(=O)N1C [SA197] | 2500 nM | – |
| CCCCN1C(=O)/C(=C/c2ccc3c(c2)OCO3)N=C1SCC [SB05] | > 10000 nM | – |
| CCCCN1C(=O)/C(=C/c2ccc3c(c2)OCO3)N=C1SCc1ccccc1 [SB10] | > 10000 nM | – |
| C=CCSC1=N/C(=C\c2ccc3c(c2)OCO3)C(=O)N1C [SB14] | 3400 nM | – |
| C#CCSC1=N/C(=C\c2ccc3c(c2)OCO3)C(=O)N1C [SB16] | 900 nM | – |
| C#CCSC1=N/C(=C\c2ccc3c(c2)OCO3)C(=O)N1CCCC [SB22] | > 10000 nM | – |
| C=CCSC1=N/C(=C\c2ccc3c(c2)OCO3)C(=O)N1CCCC [SB25] | > 10000 nM | – |
| CCSC1=N/C(=C\c2ccc3c(c2)OCO3)C(=O)N1C [SB26, (5Z)-5-(1,3-benzodioxol-5-ylmethylene)-3-methyl-2-(ethylthio)-3,5-dihydro-4H-imidazol-4-one] | 1400 nM | – |

| SMILES | IC50 [1] | IC50 (IC50 DYRK1A) |
| --- | --- | --- |
| CN1C(=O)/C(=C/c2ccc3c(c2)OCO3)N=C1SCc1ccccc1 [SB28] | 5700 nM | – |
| CCSC1=N/C(=C\c2ccc(OC)c(OC)c2)C(=O)N1C [SB55] | > 10000 nM | – |
| CCSC1=N/C(=C\c2cc(OC)cc(OC)c2)C(=O)N1C [SB56] | > 10000 nM | – |
| CCCCN1C(=O)/C(=C/c2ccc(OC)c(OC)c2)N=C1SCC [SB58] | > 10000 nM | – |
| CCCCN1C(=O)/C(=C/c2ccc3c(c2)OCO3)N=C1SCc1ccc([N+](=O)[O-])cc1 [SB60] | > 10000 nM | – |
| CCCCN1C(=O)/C(=C/c2cc3c(cc2Br)OCO3)N=C1SCC [SB80] | > 10000 nM | – |
| CC(C)CCNC1=N/C(=C\c2ccc3c(c2)OCO3)C(=O)N1C [ST025] | 1700 nM | – |
| CN1C(=O)/C(=C/c2ccc(O)cc2)NC1=S [ST076] | > 10000 nM | – |
| CSC1=N/C(=C\c2ccc(O)cc2)C(=O)N1C [ST078] | 6700 nM | – |
| CN1C(=O)/C(=C/c2ccc3c(c2)OC(F)(F)O3)NC1=S [ST089] | > 10000 nM | – |
| CCSC1=N/C(=C\c2ccc3c(c2)OC(F)(F)O3)C(=O)N1C [ST091] | > 10000 nM | – |
| CCCNC1=N/C(=C\c2ccc3c(c2)OC(F)(F)O3)C(=O)N1C [ST092] | > 10000 nM | – |
| CCCSC1=N/C(=C\c2ccc3c(c2)OCO3)C(=O)N1C [ST094] | 1800 nM | – |
| CC(C)SC1=N/C(=C\c2ccc3c(c2)OCO3)C(=O)N1C [ST097] | 1300 nM | – |
| CSC1=N/C(=C\c2ccc3c(c2)OCO3)C(=O)N1C [ST099] | 6800 nM | – |
| CCCCSC1=N/C(=C\c2ccc3c(c2)OCO3)C(=O)N1C [ST101] | 2300 nM | – |
| CN1C(=O)/C(=C/c2ccc3c(c2)OCO3)N=C1SCC1CC1 [ST102] | 1500 nM | – |
| CSC1=N/C(=C\c2ccc3c(c2)OCO3)C(=O)N1 [ST105] | 680 nM | – |
| CCSC1=N/C(=C\c2ccc3c(c2)OCO3)C(=O)N1 [ST120] | 440 nM | – |
| CCCSC1=N/C(=C\c2ccc3c(c2)OCO3)C(=O)N1 [ST122] | 440 nM | – |
| CCCCSC1=N/C(=C\c2ccc3c(c2)OCO3)C(=O)N1 [ST124] | 590 nM | – |
| O=C1NC(SCC2CC2)=N/C1=C\c1ccc2c(c1)OCO2 [ST130] | 500 nM | – |
| CC(C)SC1=N/C(=C\c2ccc3c(c2)OCO3)C(=O)N1 [ST135] | 460 nM | – |
| O=C1NC(SCC2CCC2)=N/C1=C\c1ccc2c(c1)OCO2 [ST142] | 780 nM | – |
